Assays:
[1] = taken recreationally; cited from earlier work
[2] = tested on: TNFa in circulation; assay: LPS-induced inflammatory response in mice, TNFa in circulation; format: in vivo; conditions: mice injected with LPS; subcutaneous administration; FIG. 1
Procedure: FIG. 1 is a graph showing the level of TNF-α in serum of mice injected with LPS to induce inflammation and administered 2C-H or control vehicle.
(§1) In another experiment, mice were also injected with a toxic level of LPS to initiate a lethal septic event, which was attenuated by administration of 2C-H (FIG. 2).

[3] = tested on: mice injected with a toxic level of LPS; assay: Lethal septic event after a toxic level of LPS in mice; format: in vivo; conditions: FIG. 2
Procedure: FIG. 2 is a plot showing % mice that died after injection of a toxic level of LPS when administered 2C-H or vehicle control.
as §1

[4] = tested on: mice; assay: Signs of hallucination in mice at increasing doses; format: in vivo; conditions: oral, FIG. 3
Procedure: FIG. 3 is a plot of % mice showing sign of hallucination at increasing doses of 2C-B.
(§2) Mice were administered increasing amounts of 2C-B to identify sub-hallucinogenic doses (FIG. 3). It was determined that a dose of 0.025 mg/kg can be orally administered to mice without showing any signs of hallucination. Mice were then administered 2C-B for increasing amounts of time, then placed on the EPM apparatus for 5 minutes and time spent on the open arms obtained. As it can be seen in FIG. 4, the sub-hallucinogenic dose of 2C-B was capable of reducing anxiety in mice.

[5] = tested on: mice; assay: EPM apparatus, time spent on the open arms (anxiety); format: in vivo; conditions: sub-hallucinogenic dose, EPM for 5 minutes, compared to saline, FIG. 4
Procedure: FIG. 4 is a graph showing the time spent on the open arm by mice treated with 2C-B for increasing amounts of time.
as §2

Compound | threshold unit dose that can cause psychedelic activity [1] | inflammatory response (measured by TNFa in circulation) [2] | lethal septic event (% mice that died) [3] | dose that can be orally administered without showing any signs of hallucination [4] [mg/kg] | time spent on the open arm [5]
COc1cc(CCN)c(OC)cc1I [2C-I, 2-(4-lodo-2,5-dimethoxyphenyl)ethan-1-amine] | about 2 mg | – | – | – | –
COc1ccc(OC)c(CCN)c1 [2C-H] | – | quickly quelled | attenuated | – | –
CCc1cc(OC)c(CCN)cc1OC [2C-E, 4-Ethyl-2,5-dimethoxyphenethylamine] | about 2 mg | – | – | – | –
COc1cc(CCN)c(OC)cc1Br [2C-B, 4-Bromo-2,5-dimethoxyphenethylamine] | about 5 mg | – | – | 0.025 | increased time spent on the open arm compared to saline

Source: patent US20240335401A1, “SUBSTITUTED PHENETHYLAMINE FOR TREATING INFLAMMATION AND PSYCHOLOGICAL DISORDERS” (SYNAPTIVE THERAPEUTICS LLC, priority 2022, published 2024)
